Literature values in patent US5654277A, “Peptides having thrombospondin-like activity and their therapeutic use” (W. R. Grace & Co.-Conn., priority 1995, dated 1997).

Test system: B16-F10 murine melanoma cells
Conditions: C57BL/6 mice

For GRGDS, the “inhibition of lung colony formation / metastasis” value is given as “dramatically inhibited the formation of lung colonies”.
For YIGSR, the “inhibition of lung colony formation / metastasis” value is listed as “dramatically inhibited B16-F10 melanoma cell metastasis”.
